The numbers were not newly measured in patent publication US7208523B2, “Alanine- and glycine-containing therapeutic agent for hepatitis” (Ajinomoto Co., Inc., priority 2000, dated 2007), which cites them from elsewhere.

Structures are written as SMILES.

For the series the following is noted: oral administration of glycine or alanine alone; galactosamine intraabdominal.

On to `C[C@H](N)C(=O)O` [alanine], for which the “inhibition of hepatopathy caused by galactosamine” value is “inhibits”.

In the case of `NCC(=O)O` [glycine], the “inhibition of hepatopathy caused by galactosamine” value is “inhibits”.
